From PMC10046071 (Biomedicines, 2023)
“And” between values parts separate entries of the source, which are not always exact repeats. Identical values can stand only once.

Experiments:
[1] = Stability of stock and working solutions and of extracted samples in the autosampler; format: physicochemical; details: for stock solution stability, value for accuracy: DMSO stock, 10 days at −80 °C, versus freshly made, CV 3.7%; for working solution stability, value for accuracy: methanol, 8 h at room temperature, with or without light, CV 6.5%
Excerpt: However, in the present study it has been conducted to study the stability of the stock and working solutions, freeze–thaw stability and autosampler stability. For all stability studies, the analyte stability should fall within 85−115% of the nominal concentration and was not allowed to deviate more than ±15% from the nominal concentration of all the QCs studied, as indicated in the Guidelines for Bioanalytical Methods Validation.
On the other hand, the stability of the working solutions in methanol on each test day was evaluated after 8 h at room temperature with light and in the dark.
The stability in the autosampler of the sample after the extraction process was evaluated at room temperature in the range between 2 and 8 h.

[2] = 4 CML patients
[3] = cited from earlier work
[4] = in vitro, human plasma; cited from earlier work
[5] = test system: cytochrome P450 (CYP) 3A4; details: cited from earlier work
[6] = 493 subjects with CML; cited from earlier work
[7] = no reference given; cited from earlier work
[8] = Therapeutic drug monitoring: steady-state plasma pharmacokinetics in patients with CML; details: for Tmax / Cmin / Cmax: steady state; for CL/F: apparent oral clearance
[9] = 17 patients, 300 mg twice-daily
[10] = co-administered with a high-fat meal
[11] = Patient 1, 200–300 mg twice-daily oral
[12] = Patient 2, 200–300 mg twice-daily oral
[13] = Patient 3, 200–300 mg twice-daily oral
[14] = Patient 4, 200–300 mg twice-daily oral

Cc1cn(-c2cc(NC(=O)c3ccc(C)c(Nc4nccc(-c5cccnc5)n4)c3)cc(C(F)(F)F)c2)cn1 [nilotinib, Nilotinib]
stock solution stability, value for accuracy [1]: less than 1.5% | degradation on the autosampler ([1]; extracted sample, up to 8 h, room temperature): < 8.3% | working solution stability, value for accuracy [1]: lower than 15.1% | Correlation of Cmin with ALT (U/L) [2]: −0.3552 | Correlation of Cmin with AST (U/L) [2]: −0.0833 | Correlation of Cmin with Alkaline phosphatase (U/L) [2]: 0.7497 | Correlation of Cmin with Haemaglobin (g/dL) [2]: −0.0319 | Correlation of Cmin with Haematocrit (%) [2]: 0.0870 | Correlation of Cmin with Leukocytes (×10^3/µL) [2]: −0.9194 | Correlation of Cmin with Neutrophils (×10^3/µL) [2]: −0.0280 | Correlation of Cmin with Platelet (×10^3/µL) [2]: −0.6949 | Correlation of Cmin with Serum bilirrubin (mg/dL) [2]: −0.4013 | Correlation of Cmin with Serum creatinine (g/dL) [2]: −0.1897 | Cmin at a steady state ([3]; 300 mg twice-daily, some clinical trials, no reference given): ~1123 ng/mL | Cmax at steady state [3, 9]: 1360 ng/mL | Cmin at steady state [3, 9]: 1123 ng/mL | interindividual variability in exposure (coefficient of variation) [3]: 32–64% | increase in the AUC [3, 10]: 50–82% | increase in the Cmax [3, 10]: up to 112% | mean area under the curve (AUC) ([3]; oral 400 mg twice daily): 19000 ± 9100 ng·h/mL | mean maximum plasma concentration (Cmax) ([3]; oral 400 mg twice daily): 2320 ± 1070 ng/mL | plasma protein binding [4]: approximately 98% | metabolizing enzymes [5]: metabolized primarily by cytochrome P450 (CYP) 3A4 isoform and with minor contributions from CYP2C8 | trough concentration (Cmin) associated with longer times to complete cytogenetic response and MMR and shorter time to progression [6]: < 469.4 ng/mL | aqueous solubility versus pH [7]: decreases significantly with increased pH | pKa [7]: 12.38 | solubility [7]: good solubility in DMSO, organic solvents (methanol and acetonitrile) and acidic aqueous solution | t1/2 ([8]; Mean (SD) of 4 patients): 78.1 (75.4) h | Tmax ([8]; Mean (SD) of 4 patients): 2.3 (1.3) h | Cmin ([8]; Mean (SD) of 4 patients, 200–300 mg twice-daily): 1193.5 ng/mL and 1193.5 (414.7) ng/mL | CL/F ([8]; Patient 1): 2.8 L/h | t1/2 ([8]; Patient 1, elimination half-life): 25.1 h | Tmax ([8]; Patient 1): 1 h | Cmax [8, 11]: 3491.4 ng/mL | Cmin [8, 11]: 1633.9 ng/mL | CL/F ([8]; Patient 2): 1.9 L/h | t1/2 ([8]; Patient 2, elimination half-life): 69.3 h | Tmax ([8]; Patient 2): 2 h | Cmax [8, 12]: 1137.2 ng/mL | Cmin [8, 12]: 768.9 ng/mL | CL/F ([8]; Patient 3): 0.6 L/h | t1/2 ([8]; Patient 3, elimination half-life): 187.4 h | Tmax ([8]; Patient 3): 2 h | Cmax [8, 13]: 1988.4 ng/mL | Cmin [8, 13]: 1450.3 ng/mL | CL/F ([8]; Patient 4): 5.7 L/h | t1/2 ([8]; Patient 4, elimination half-life): 30.7 h | Tmax ([8]; Patient 4): 4 h | Cmax [8, 14]: 1103.5 ng/mL | Cmin [8, 14]: 920.7 ng/mL

Cc1cc(/C=C/C#N)cc(C)c1Nc1ccnc(Nc2ccc(C#N)cc2)n1 [rilpivirine]
stock solution stability, value for accuracy [1]: less than 1.5% | working solution stability, value for accuracy [1]: lower than 15.1%
